In patent US8431533B2, “GLP-1 fusion peptides, their production and use” (Biocompatibles UK Ltd., priority 2005, dated 2013):
Read-outs that look alike come from different tables or passages of the source. Ends that are not written are not given here.

Assays:
DPPIV [1] = biological target: T1, DPPIV (Homo sapiens, UniProt P27487); test: In vitro plasma stability of GLP-1 peptides secreted from human cells; assay type: in vitro ADME; set-up: human lymphocyte enriched plasma containing dipeptidylpeptidase activity; from tissue; host or cells: human lymphocyte enriched plasma; settings: human lymphocyte enriched plasma, 37° C., 3 or 4 hours
From the text: HEK293 and hTERT-MSC cells were transiently transfected with constructs, encoding the heterologous stromelysin signal sequence, which is linked to GLP-1 variants encoding the following peptides: […]
Target sequence in this assay (P27487 whole entry): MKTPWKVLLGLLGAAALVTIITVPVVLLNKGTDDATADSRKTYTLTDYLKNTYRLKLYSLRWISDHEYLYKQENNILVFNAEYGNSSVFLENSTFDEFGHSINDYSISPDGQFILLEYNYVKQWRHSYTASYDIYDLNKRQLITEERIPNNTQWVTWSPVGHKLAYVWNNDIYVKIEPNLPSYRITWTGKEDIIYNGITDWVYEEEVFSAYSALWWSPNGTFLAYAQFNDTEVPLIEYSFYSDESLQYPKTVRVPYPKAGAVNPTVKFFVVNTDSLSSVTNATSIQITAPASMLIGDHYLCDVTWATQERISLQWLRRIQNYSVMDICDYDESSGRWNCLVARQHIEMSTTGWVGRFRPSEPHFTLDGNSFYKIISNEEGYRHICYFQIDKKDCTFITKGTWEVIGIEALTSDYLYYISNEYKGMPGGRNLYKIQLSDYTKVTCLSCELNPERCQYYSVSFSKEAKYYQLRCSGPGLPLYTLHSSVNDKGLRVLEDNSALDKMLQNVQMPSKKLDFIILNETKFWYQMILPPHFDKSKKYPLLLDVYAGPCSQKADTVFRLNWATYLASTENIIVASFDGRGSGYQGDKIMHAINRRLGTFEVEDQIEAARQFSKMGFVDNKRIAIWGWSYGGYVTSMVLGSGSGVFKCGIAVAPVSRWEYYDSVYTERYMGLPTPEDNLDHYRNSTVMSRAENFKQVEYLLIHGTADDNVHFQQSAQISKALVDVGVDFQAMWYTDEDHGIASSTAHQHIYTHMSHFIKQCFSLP

DPPIV [2] = biological target: T1, DPPIV; test: In vitro plasma stability of GLP1CM peptides (kinetic test method); settings: 10% human plasma; for DT80: time needed to degrade active GLP-1 to 80% of the 0 h value, 1 μM peptide; for remaining at 9 h, 1 μM: human, pH 7.8
Target sequence in this assay (P27487 39-766 limits assumed): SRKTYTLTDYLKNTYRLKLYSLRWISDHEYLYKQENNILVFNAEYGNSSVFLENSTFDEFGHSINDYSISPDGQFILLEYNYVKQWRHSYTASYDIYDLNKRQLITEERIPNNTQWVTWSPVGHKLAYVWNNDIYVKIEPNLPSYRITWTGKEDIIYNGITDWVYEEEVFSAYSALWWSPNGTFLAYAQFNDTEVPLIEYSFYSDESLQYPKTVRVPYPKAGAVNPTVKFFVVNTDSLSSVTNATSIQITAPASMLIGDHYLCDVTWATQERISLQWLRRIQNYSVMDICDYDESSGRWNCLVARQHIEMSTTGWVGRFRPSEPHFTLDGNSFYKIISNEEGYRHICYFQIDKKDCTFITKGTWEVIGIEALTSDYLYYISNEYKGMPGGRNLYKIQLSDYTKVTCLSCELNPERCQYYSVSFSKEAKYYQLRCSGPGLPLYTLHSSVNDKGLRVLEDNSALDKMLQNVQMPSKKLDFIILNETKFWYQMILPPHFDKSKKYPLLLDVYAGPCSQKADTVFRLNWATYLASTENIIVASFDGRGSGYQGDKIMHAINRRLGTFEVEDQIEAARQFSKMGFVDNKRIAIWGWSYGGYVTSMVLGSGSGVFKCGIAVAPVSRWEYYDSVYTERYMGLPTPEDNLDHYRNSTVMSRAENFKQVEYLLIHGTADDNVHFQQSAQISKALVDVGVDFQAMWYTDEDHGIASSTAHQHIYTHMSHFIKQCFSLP
From the text: (§1) Results are from triplicates in at least two independent experiments.

[3] = In vitro human plasma stability of GLP-1CM peptides; settings: 20 ng/ml, 37° C., 3 hours, GLP-1 (Active) ELISA
From the text: Dipeptidylpeptidase activity of the plasma was inhibited by an DPP-IV inhibitor (#DPP4, Biotrend).

DPPIV [4] = biological target: T1, DPPIV
Target sequence in this assay (P27487 39-766 limits assumed): as above
From the text: as §1

DPPIV [5] = biological target: T1, DPPIV; test: in vitro; settings: plasma, pH 7.8
Target sequence in this assay (P27487 39-766 limits assumed): as above
From the text: as §1

[6] = test system: C57BL/KsJ@Rj-db (db/db) mice; test: Long-term treatment of db/db mice; assay type: in vivo
Experimental: Blood glucose was measured from a tail bleed after a 12-hour overnight fast 18 hours after s.c. injection of the test substances. […] The serum was analysed for insulin with the Insulin Mouse Ultrasensitive ELISA (Cat.#EIA-3440, DRG).

[7] = test system: diabetic C57BL/KsJ@Rj-db (db/db) mice; test: Dose-efficacy study in diabetic mice; assay type: in vivo
Experimental: A sixth group was treated with saline only. 7 animals were treated per group. Blood glucose was determined from tail bleeds directly before, 1 hour and 4 hours after injection. […] For every test substance a graph was prepared with the percentage difference of the blood glucose in relation to the start value for the different concentrations. […] Both models are sigmoidal fit models suitable for dose response evaluation.

BALB/c mice = test: In vivo study, immunogenicity; settings: 5 repeated injections, 70 μg peptide/dose, i.v., over 22 d
Experimental: The trial was done in BALB/c mice receiving 5 repeated injections (70 μg peptide/dose, i.v.) over 22 d (n=5).
Spleens of the treated and control mice were explanted, T-cells isolated and stimulated with increasing amounts of antigene. Proliferative recall response is measured.

[8] = test system: type II diabetic mice (C57BL/Ks-Lepr^db/db); test: In vivo bioactivity, blood glucose in type II diabetic mice; settings: 5 μg peptide s.c. twice a day, day 2, 4, 7, 10, after overnight fast
Experimental: 11-week-old type II diabetic mice (C57BL/Ks-Lepr^db/db, Harlan) were treated with 5 μg peptide by subcutaneous injection twice a day at 9 a.m. and 5 p.m. (n=5 per group). Blood glucose was measured before (day 0) and after treatment with GLP^CM peptides (Day 2, 4, 7, 10) at 10 a.m. after an overnight fastening period. Data were presented in relation to blood glucose levels measured at day 0.

With “GLP-1(7-37) [compound 1, reference compound]” the “resistance to DPP-IV degradation” value (DPPIV [1]) was “inactivated by DPP-IV in a similar way to synthetic GLP-1”.

For “HAEGTFTSDVSSYLEGQAAKEFIAWLVKGRGRRDFPEEVAIAEELG [CM3]”, the DT80 (DPPIV [2]; 37° C.) was 4.4 h and the “stability in human plasma in vitro” value [3] was “significantly stabilized”.

For “HAEGTFTSDVSSYLEGQAAKEFIAWLVKGRGRRDAAAAVAIAEELG [CM3-ANA03]”, the “in vitro plasma stability, comparison” value (DPPIV [2]; 37° C.) was “strongly reduced stability compared to CM3”, the remaining at 9 h, 1 μM (DPPIV [2]) was 30% and the DT80 (DPPIV [2]; 37° C.) was 1.6 h.

With “HAEGTFTSDVSSYLEGQAAKEFIAWLVKGRGAADFPEEVAIAEELG [CM3-ANA01]” the DT80 (DPPIV [4]) was 12.5 h and the “in vitro plasma stability, comparison” value (DPPIV [4]) was “higher plasma stability than CM3”.

Molecule “HAEGTFTSDVSSYLEGQAAKEFIAWLVKGRGRRDFAEEVAIAEELG [CM3-ANA02]” has a remaining at 9 h, 1 μM (DPPIV [2]) of 65% and a DT80 (DPPIV [2]; 37° C.) of 4.5 h.

CC[C@H](C)[C@H](NC(=O)[C@H](Cc1ccccc1)NC(=O)[C@H](CCC(=O)O)NC(=O)[C@H](CCCCN)NC(=O)[C@H](C)NC(=O)[C@H](C)NC(=O)[C@H](CCC(N)=O)NC(=O)CNC(=O)[C@H](CCC(=O)O)NC(=O)[C@H](CC(C)C)NC(=O)[C@H](Cc1ccc(O)cc1)NC(=O)[C@H](CO)NC(=O)[C@H](CO)NC(=O)[C@@H](NC(=O)[C@H](CC(=O)O)NC(=O)[C@H](CO)NC(=O)[C@@H](NC(=O)[C@H](Cc1ccccc1)NC(=O)[C@@H](NC(=O)CNC(=O)[C@H](CCC(=O)O)NC(=O)[C@H](C)NC(=O)[C@@H](N)Cc1c[nH]cn1)[C@@H](C)O)[C@@H](C)O)C(C)C)C(=O)N[C@@H](C)C(=O)N[C@@H](Cc1c[nH]c2ccccc12)C(=O)N[C@@H](CC(C)C)C(=O)N[C@H](C(=O)N[C@@H](CCCCN)C(=O)NCC(=O)N[C@@H](CCCNC(=N)N)C(=O)NCC(=O)N[C@@H](CCCNC(=N)N)C(=O)N[C@@H](CCCNC(=N)N)C(=O)N[C@@H](CC(=O)O)C(=O)N[C@@H](Cc1ccccc1)C(=O)N1CCC[C@H]1C(=O)N[C@@H](CCC(=O)O)C(=O)N[C@@H](CCC(=O)O)C(=O)N[C@H](C(=O)N[C@@H](C)C(=O)O)C(C)C)C(C)C [CM3-ANA07] showed a DT80 (DPPIV [4]) of 2.0 h and a remaining at 9 h, 1 μM (DPPIV [5]) of 37%.

In the case of GLP-1(7-37)-IP2-RR-GLP1(7-37) [CM1], the “fasted blood glucose level” value ([6]; 12-hour overnight fast, 18 h after peptide injection) is reported as “reduced”, the “non fasted blood glucose level compared to control” value ([6]; 1 h after s.c. peptide injection, 24 nmol/kg) is reported as 55% and the food consumption ([6]; weekly, 122 day treatment period, compared to the control, p<0.001) is reported as “significantly lower”. For the same molecule, the “fall in plasma glucose @1 h” value ([7]; 1 hour after single s.c. injection of 1.1-3.0 nmol peptide, versus control) was 50% ± 14%@1 h, the “fall in plasma glucose @4 h” value ([7]; 4 hours after single s.c. injection of 1.1-3.0 nmol peptide, versus control) was 0%@4 h and the “ED50 (plasma glucose)” value ([7]; single s.c. dose, percentage decrease of blood glucose at 1 h, sigmoidal fit) was 0.61 μg/mouse. For the same molecule, the toxicity (BALB/c mice) was “no toxicity”, the “anti-hyperglycemia effect (blood glucose in relation to day 0)” value [8] was “Best results” and the “anti-hyperglycemia effect (blood glucose in relation to day 0)” value ([8]; listed as SEQ ID No.:6) was “anti-hyperglycemia effect”.

Work on CC[C@H](C)[C@H](NC(=O)[C@H](Cc1ccccc1)NC(=O)[C@H](CCC(=O)O)NC(=O)[C@H](CCCCN)NC(=O)[C@H](C)NC(=O)[C@H](C)NC(=O)[C@H](CCC(N)=O)NC(=O)CNC(=O)[C@H](CCC(=O)O)NC(=O)[C@H](CC(C)C)NC(=O)[C@H](Cc1ccc(O)cc1)NC(=O)[C@H](CO)NC(=O)[C@H](CO)NC(=O)[C@@H](NC(=O)[C@H](CC(=O)O)NC(=O)[C@H](CO)NC(=O)[C@@H](NC(=O)[C@H](Cc1ccccc1)NC(=O)[C@@H](NC(=O)CNC(=O)[C@H](CCC(=O)O)NC(=O)[C@H](C)NC(=O)[C@@H](N)Cc1c[nH]cn1)[C@@H](C)O)[C@@H](C)O)C(C)C)C(=O)N[C@@H](C)C(=O)N[C@@H](Cc1c[nH]c2ccccc12)C(=O)N[C@@H](CC(C)C)C(=O)N[C@H](C(=O)N[C@@H](CCCCN)C(=O)NCC(=O)N[C@@H](CCCNC(=N)N)C(=O)NCC(=O)N[C@@H](CCCNC(=N)N)C(=O)N[C@@H](CCCNC(=N)N)C(=O)N[C@@H](CC(=O)O)C(=O)N[C@@H](Cc1ccccc1)C(=O)N1CCC[C@H]1C(=O)O)C(C)C [CM3-ANA06, reference compound] yielded a remaining at 9 h, 1 μM (DPPIV [2]) of 11% and a DT80 (DPPIV [2]; 37° C.) of 0.9 h.

Work on “HAEGTFTSDVSSYLEGQAAKEFIAWLVKGRGRRDFPEEVAIAEELGRRHAC [CM3-ANA09]” yielded a DT80 (DPPIV [4]) of 4.2 h and a remaining at 9 h, 1 μM (DPPIV [5]) of 60%.

In the case of “HAEGTFTSDVSSYLEGQAAKEFIAWLVKGRGAADAAAAVAIAAALG [CM3-ANA04]”, the remaining at 9 h, 1 μM (DPPIV [2]) is reported as 65% and the DT80 (DPPIV [2]; 37° C.) is reported as 4.7 h.

With GLP1(7-37)-IP2-GLP1(7-37) [compound 3] the “resistance to DPP-IV degradation” value (DPPIV [1]) was “nearly fully stabilised to DPP-IV degradation in vitro”.

B1: GLP-1(7-37)-IP2-RR-GLP2 (peptide)
chain: HAEGTFTSDVSSYLEGQAAKEFIAWLVKGRGRRDFPEEVAIAEELGRRHADGSFSDEMSTILDNLATRDFINWLIQTKITDKK
In the case of B1, the “stability in human plasma in vitro” value [3] is reported as “significantly stabilized” and the “anti-hyperglycemia effect (blood glucose in relation to day 0)” value [8] is reported as “anti-hyperglycemia effect”.
